This note sets out measurements from patent US5552156A, “Liposomal and micellular stabilization of camptothecin drugs” (Ohio State University, priority 1995, dated 1996).

The nature of data set [1]: HPLC assay of lactone ring hydrolysis, free in PBS or associated with liposomes or micelles. The data set is classed as physicochemical. The following applies: for duration of stability when bound to liposomes / lactone hydrolysis when associated with liposomes: DMPC and DMPG liposomes; for duration of stability when bound to liposomes: 0.29M lipid; for C/L drug DMPC Lip. / t1/2 drug DMPC Lip.: DMPC liposomes; for C/L drug DMPG Lip. / t1/2 drug DMPG Lip.: DMPG liposomes; for effect of liposome lysis by sonication: 5 minutes sonication; for biologically active (lactone) form present after 48 hours: associated with DMPC or DMPG liposomes; for carboxylate/lactone ratio (C/L) free drug: final equilibrium; for t1/2 free drug: lactone hydrolysis. The method, then: A high performance liquid chromatography assay was used to determine the rate of hydrolysis of camptothecin and topotecan free in aqueous solution and to compare such rates with the rate of hydrolysis for the same drugs when bound to the DMPG and DMPC liposome membranes. The assay was conducted under near physiological conditions; the pH was 7.4, the temperature was 37° C. and the ionic strength was physiological. A Spectroflow model 980 fluorescence detector coupled to an HP 3392A integrator which acquired and processed the chromatograms, was used. For camptothecin, an Ultrasphere ODS C-18 250 mm long column was used. The mobile phase consisted of 32% acetonitrile, 67% 0.1M acetate buffer, pH 5.5, and 1% 01.M sodium dodecylsulfate at a flow rate of 1 mL/min. The detector was set to 370 nm excitation wavelength and a 418 nm long pass emission filter. A 1 μM solution of camptothecin in PBS was prepared and incubated at 37° C. Immediately after mixing the drug stock solution with PBS and at intervals of 5 min thereafter, 50 μL aliquots were taken out and mixed with 150 μL methanolic internal standard, 9-toluoylamidocamptothecin and either analyzed immediately or kept cold under dry ice. 150 μL of this mixture was diluted with 125 μL water and 200 μL was injected. The ratio of the peak areas corresponding to the intact lactone form of the camptothecin drug and the internal standard at a particular time was normalized to that at the time of mixing and was considered as the concentration of the intact lactone form.
For topotecan the excitation wavelength was 362 nm and the emission was observed through a 470 long wave pass filter. The stationary phase was Waters Nova-Pak C-18 150mm long column. The mobile phase consisted of 500 mL 0.1M KH2 PO4, 550 mL acetonitrile, 4.2 mL triethylamine (distilled over molecular sieves), 4.44 g sodium dioctylsulfosuccinate (DOSS), and 970 ml water. The pH was adjusted to 6.0 with H3 PO4. Internal standard solution contained 50×10^-9 g acridine from Eastman and 20×10^-3 M DOSS in methanol and was always kept cold at ≤-20° C. Next 150 μL or cold internal standard solution was mixed with 50 μL aliquot containing topotecan, centrifuged for 1 minute and the supernatant was either analyzed immediately or stored at -20° C. for analysis at a later time, within 2 hours. Samples were monitored at time points from 0 minutes, that is, immediately following dissolution, up to 72 hours.
The kinetics of lactone ring hydrolysis for free camptothecin, CMC and topotecan are shown in of FIGS. 7a, 7b and 7c. Analysis of the decay profile for camptothecin, CMC and topotecan free in PBS was accomplished using a nonlinear least squares program.

Data set [2] in a line: Relative lipophilicity of camptothecin drugs. Conditions: among drugs of Table V.
Data set [3] can be described thus: HPLC assay of lactone ring hydrolysis, free in PBS or associated with liposomes or micelles. The data set is classed as physicochemical.
Data set [4] is described as follows: Excited-state lifetime of camptothecin. The data set is classed as physicochemical. The following applies: for excited state-lifetime: 37° C. As for the experimental part: The excited state-lifetime values of camptothecin free in solution was measured in PBS, glycerol, and methanol at 37° C. The lifetime values are 4.7 ns, 3.8 ns, and 3.5 ns, respectively. The average excited state-lifetime value of camptothecin when bound to DMPC liposome membrane is 3.7 ns. The measurements indicate that the excited-state lifetime of camptothecin is relatively insensitive to changes in solvent environment or to changes due to relocation of camptothecin from an aqueous environment to the lipid liposome membrane.
The picosecond fluorescence experiment were carried out with a Piridine I cavity dumped dye laser and frequency doubled light […]. The lifetime and correlation time were measured using frequency domain fluorometer operating up 10 GHz (Laczko et al., Rev. Sci. Instrum. 61: 2331, (1990)). The modulated exited light was obtained from the harmonic content of a laser pulse train with a repetition rate of 3.81 MHz and a pulse width of 5 ps. A mode locked […] Antares laser was used to pump the dye laser. The emission was observed through the cut of the filter […] by microchannel photomultiplier. The cross-correlation detection was done outside the photomultiplier tube, according to Laczko et al., Rev, Sci. Instrum. 61: 2331 (1990).

Entries after “also recorded” stand apart in the source; their conditions may differ.

Consider `CCC1(O)C(=O)OCc2c1cc1n(c2=O)Cc2cc3c(Cl)c4c(cc3nc2-1)OCO4` (stereo not drawn) [9-chloro-10,11-methylenedioxycamptothecin], for which, in data set [1], the “duration of stability when bound to liposomes” value is “at least 48 hours” and the “biologically active (lactone) form present after 48 hours” value (from here on “biologically active”) is recorded as “more than 97%”. In data set [1] (pH 7.4, 37° C.), the “C/L drug DMPC Lip.” value is ~ 0, the “t1/2 drug DMPC Lip.” value was more than 72 h, the “C/L drug DMPG Lip.” value was ~ 0 and the “t1/2 drug DMPG Lip.” value was more than 72 h. Also, the “effect of liposome lysis by sonication” value in data set [1] (DSPC MLVs) is listed as “releases 9-chloro-10,11-methylenedioxycamptothecin which is then hydrolysed”. The “effect of liposome lysis by sonication” value in data set [1] (DSPC MLVs, listed as CMC) was “at least partially released and hydrolysed”. Also, the “lactone ring not hydrolysed in pH 5 DSPC liposomes” value in data set [1] (DSPC MLVs, internal pH 5) was “More than 80%”. In data set [1] (free in PBS, pH 7.4, 37° C.), the “carboxylate/lactone ratio (C/L) free drug” value worked out at 6.4, the “half-life (t1/2) of free drug in PBS” value is listed as “approximately 21 min” and the t1/2 free drug is 21.3 min. The relative lipophilicity entry in data set [2] is “most lipophilic”.
For `CCC1(O)C(=O)OCc2c1cc1n(c2=O)Cc2cc3cc4c(cc3nc2-1)OCO4` (stereo not drawn) [10,11-methylenedioxycamptothecin], in data set [3] (SDS micelles, about 2.5 hours), the “drug not hydrolysed at about 2.5 hours” value is recorded as “about 75%”. Besides, the “t1/2, octylphenolpolyoxyethylene micelles” value in data set [3] (octylphenolpolyoxyethylene micelles, PBS pH 7.4) came out at 90 min. Moreover, in data set [1], the “lactone hydrolysis when associated with liposomes” value is reported as “little hydrolysis even at 48 hours” and the “biologically active” value is listed as “more than 97%”. In data set [1] (pH 7.4, 37° C.), the “C/L drug DMPC Lip.” value was ~ 0, the “t1/2 drug DMPC Lip.” value is more than 72 h, the “C/L drug DMPG Lip.” value is on record as ~ 0 and the “t1/2 drug DMPG Lip.” value is more than 72 h. Moreover, in data set [1] (free in PBS, pH 7.4, 37° C.), the “carboxylate/lactone ratio (C/L) free drug” value stood at 3.3, the “half-life (t1/2) of free drug in PBS” value was 28.7 min and the t1/2 free drug was 28.7 min. In addition, the degraded at 1 h in data set [1] (pH 7.4, free in PBS, less than 1 hour, read-out: drug hydrolyzed in less than 1 hour) is more than 70%. For the same molecule, the “drug stabilized at 5 hours” value in data set [1] (sorbitan mono-oleate micelles, 5 hours) is on record as 50%.
As for `CCC1(O)C(=O)OCc2c1cc1n(c2=O)Cc2cc3cc(O)ccc3nc2-1` (stereo not drawn) [10-hydroxycamptothecin], in data set [1] (free in PBS, pH 7.4, 37° C.), the “carboxylate/lactone ratio (C/L) free drug” value was 5.4 and the t1/2 free drug was 23.9 min.
Consider `CC[C@@]1(O)C(=O)OCc2c1cc1n(c2=O)Cc2cc3ccccc3nc2-1` [camptothecin], for which the “t1/2 drug DSPC Lip.” value in data set [3] (DSPC liposomes, pH 7.4, 37° C.) is reported as ~ 100 min. Moreover, the “lactone ring hydrolysis at raised drug concentration” value in data set [1] (2 mM, lipid to drug ratio 150, DMPC) was “no evidence of lactone ring hydrolysis was observed”. Also, in data set [1], the “duration of stability when bound to liposomes” value is reported as “at least 48 hours” and the “biologically active” value is given as “more than 97%”. In data set [1] (pH 7.4, 37° C.), the “C/L drug DMPC Lip.” value was ~ 0, the “t1/2 drug DMPC Lip.” value was more than 72 h, the “C/L drug DMPG Lip.” value was ~ 0 and the “t1/2 drug DMPG Lip.” value is more than 72 h. In addition, the “C/L drug DSPC Lip.” value in data set [1] (DSPC liposomes, pH 7.4, 37° C.) is recorded as ~ 3.4. Besides, in data set [1] (free in PBS, pH 7.4, 37° C.), the “carboxylate/lactone ratio (C/L) free drug” value was 6.8, the “half-life (t1/2) of free drug in PBS” value came to 16.6 min and the t1/2 free drug came to 16.6 min. Besides, the excited state-lifetime in data set [4] (PBS) is reported as 4.7 ns. Besides, in data set [4] (bound to DMPC liposome membrane), the average excited state-lifetime turned out to be 3.7 ns. This molecule also showed an excited state-lifetime in data set [4] (glycerol) of 3.8 ns. In data set [4] (methanol), this molecule displayed an excited state-lifetime of 3.5 ns.
`CC[C@@]1(O)C(=O)OCc2c1cc1n(c2=O)Cc2cc3c(CN(C)C)c(O)ccc3nc2-1` [topotecan]: in data set [1], the “lactone hydrolysis when associated with liposomes” value is “some hydrolysis at 1 hour; also recorded: stabilized to a greater degree in DMPG liposomes as compared to DMPC liposomes”. Besides, in data set [1] (pH 7.4, 37° C.), the “C/L drug DMPC Lip.” value stood at 3.4, the “t1/2 drug DMPC Lip.” value turned out to be 1.25 h, the “C/L drug DMPG Lip.” value amounted to 0.42 and the “t1/2 drug DMPG Lip.” value came to 1.6 h. In data set [1] (free in PBS, pH 7.4, 37° C.), the “carboxylate/lactone ratio (C/L) free drug” value came to 7.5 and the t1/2 free drug amounted to 21.1 min.
